Tests used:
[1] = test system: CX-1 Human Colon Carcinoma; test: Clonogenic dye screening assay, CX-1 cells (IC50); assay type: cell-based; set-up: CX: unit not given here; details: for CX (IC50 in the CX-1 cell line): 3 hrs treatment, unit from method b117-118; for CV/CX (selectivity, kill ratio): ratio of IC50 in normal CV-1 line to IC50 in carcinoma CX-1 line; for CX / CV/CX: Table XVI; for CX: unsymmetrical dyes, CX-1 cells; for CV/CX: selectivity ratio of IC50 values
Procedure, shortened: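 Cells seeded 16-30 h ahead (2000 CX-1 or 1000 CV-1 per well), exposed to serially diluted dyes for 3 h at 37 °C, rinsed three times, then grown into colonies. Eight-point curves spanned 0.32-0.0015 μg/mL (CX-1) and 3.2-0.025 μg/mL (CV-1). IC50 is the concentration killing 50% of cells.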

[2] = test system: CV-1 Normal Monkey Kidney Epithelial; test: Clonogenic dye screening assay, CV-1 cells (IC50); assay type: cell-based, African green monkey; details: colonies after 7-10 days
Text: CX-1 is a cancerous human colon adenocarcinoma cell line. CV-1 is a non-cancerous control, which is a kidney epithelial cell line from an African green monkey. IC50 is the dye concentration at which 50% of the cells are killed. Selectivity or kill ratio is defined as the ratio of […] at IC50 for both CX-1 and CV-1. A ratio with a high number indicates a high selectivity.
The dyes were screened in two cell lines. CX-1 is a human colon adenocarcinoma cell line. CV-1 is a kidney epithelial cell line from an African green monkey. CV-1 was used as a reference because no normal human epithelial cell line is available for clonogenic assay.
In the initial screen, dyes were examined at six different concentrations to generate a dose response curve. An IC50 value, the concentration at which 50% of the cells are killed, was then calculated. Initially, a dye concentration of 1.0 μg/mL was the highest examined for the CX-1 cell line and 0.005 μg/mL was the lower limit. The corresponding limits on the CV-1 cell line were […].
The screening procedure used a response curve that was determined from eight dye concentrations. The upper and lower limits of CX-1 were 0.32 and 0.0015 μg/mL, respectively, and the corresponding revised limits on CV-1 were 3.2 and 0.025 μg/mL. The screening results were reported by assigning an IC50 value to each dye for the CV-1 and CX-1 cell lines. These values will be referred to herein simply as CV and CX. The most desirable result would be to have a dye that was highly toxic to carcinoma cells but nontoxic to ‘normal’ cells. One measure of this type of selectivity is the ratio of the IC50's in the normal cell line to that in the carcinoma line, CV/CX.
Compounds are screened via an in vitro assay. CV-1 and CX-1 cells are seeded into separate assay plates. The plates are treated with varying concentrations of test compounds, rinsed, and colonies allowed to grow. IC50's are determined and drugs evaluated based on their selectivity and toxicity. Assay Steps: • I. Seeding Cells • II. Weighing • III. Preparation of Solution • IV. Treatment • V. Rinsing and Feeding • VI. Fixing • VII. IC50 Determination I. Seeding Cells
The cells should be seeded 16-30 hours before treatment. The media for CV-1 cells is DME+5% calf serum +5% Nuserum. The media for CX-1 cells is RPMI/DME (50/50)+5% calf serum +5% Nuserum.
(c) number of cells based on 2000 CX-1 cells/well and 1000 CV-1 cells/well. NOTE: Always make enough cell suspension for 1 extra plate to allow for volume loss during transfers.
• (a) For CV-1: 256 ug/ml-256 ul of 1 mg/ml stock +744 ul DMSO • (b) For CX-1: 25.6 ug/ml-100 ul of 256 ug/ml+900 ul DMSO IV. Treatment • 1. Each plate is treated with 4 test compounds, one positive control and one negative control. • 2. Serial dilutions of the compounds are made in the following way:
2 multi-well pipetters are used. One is set for 10 ul and one for 200 ul. Each is equipped with 6 tips spaced such that they fit into the 6 rows of a plate. 390 ul of media is added to the first column of each plate. 10 ul each of 4 compound solutions, a positive and a negative control are taken up and put into the first column of wells. The 200 ul pipetter is then placed in the same wells, pipetted up and down 3 times and two 200 ul aliquots are moved to the next column of wells. This column is pipetted up and down 3 times and 400 ul moved to column 3, etc. The final 400 ul excess from column 8 is discarded.
• 3. Label the plates along the front, each row −1 compound. • 4. Incubate the plates at 37° C. for 3 hrs. V. Rinsing • 1. Prepare several bottles of CX-1 and CV-1 media. • 2. Check for precipitate in first column of each plate and note. • 3. Starting with the plates treated first, rinse several plates at a time by aspirating the treatments and refilling each well with 0.5-1.0 ml of the rinse media. Aspirate and refill 2 more times for a total of 3 rinses. • 4.

CX (IC50 in the CX-1 cell line) ([1]; colonies after 7-10 days)	Compound	CV/CX (selectivity, kill ratio) [1]	other results
0.01 µg/mL	CCN1/C(=C/C=C/c2oc3ccccc3[n+]2CC)Sc2cccc(-c3ccccc3)c21.[I-] [Dye D-106]	80	CV (IC50 in the CV-1 cell line) ([2]; 3 hrs treatment, unit from method b117-118): 0.8 µg/mL
–	CCN1C(=O)/C(=C\C=C2/Oc3ccccc3N2CC)S/C1=N\c1sc2ccccc2[n+]1CC [Dye D-107]	60	IC50 ([1]; Homo sapiens, CX-1, 3 hrs treatment, colonies after 7-10 days, unit from method, read-out: CX (IC50 in the CX-1 cell line)): 0.05 µg/mL; IC50 ([2]; Primates, CV-1, 3 hrs treatment, unit from method, read-out: CV (IC50 in the CV-1 cell line)): 3 µg/mL
0.02 µg/mL	COc1cccc2c1CCC1=C2N(C)/C(=C/C=C/c2sc3c([n+]2C)-c2cccc(OC)c2CC3)S1 [drawing 43|M|4,5-H, 6-MeO|4,5-H, 6-MeO]	0.75	–
0.20 µg/mL	CN1C2=C(CCc3ccccc32)S/C1=C\C=C\c1sc2c([n+]1C)-c1ccccc1CC2 [drawing 43|M|4,5-H|4,5-H]	4.0	–
0.08 µg/mL	COc1cccc2c3c(ccc12)S/C(=C\C=C\c1sc2ccc4c(OC)cccc4c2[n+]1C)N3C [drawing 43|M|6-MeO|6-MeO]	10.0	–
0.09 µg/mL	COc1ccc2c3c(ccc2c1)S/C(=C\C=C\c1sc2ccc4cc(OC)ccc4c2[n+]1C)N3C [drawing 43|M|7-MeO|7-MeO]	35.5	–
0.02 µg/mL	COc1ccc2ccc3c(c2c1)N(C)/C(=C/C=C/c1sc2ccc4ccc(OC)cc4c2[n+]1C)S3 [drawing 43|M|8-MeO|8-MeO]	40.0	–
–	CN1/C(=C/C=C/c2sc3ccc4ccccc4c3[n+]2C)Sc2ccc3ccccc3c21 [drawing 43|M|H|H]	10.0	–
–	CC[n+]1c(/C=C/C=C2\Oc3cc([N+](=O)[O-])c(Cl)cc3N2C)sc2cc([N+](=O)[O-])ccc21 [drawing 44|E/M|6-N03|5-Cl, 6-N03]	10.0	–
–	CCN1/C(=C\C=C\c2sc3ccccc3[n+]2CC)Oc2ccc(Cl)cc21 [drawing 44|Et|H|5-Cl]	27.3	–
–	CCN1/C(=C/C=C/c2sc3cc(OC)c(OC)cc3[n+]2CC)Oc2ccccc21 [drawing 44|E|5,6-MeO|H]	12.5	–
–	CCN1/C(=C/C=C/c2sc3cc(C)c(C)cc3[n+]2CC)Oc2ccccc21 [drawing 44|E|5,6-Me|H]	>20.0	–
–	CCN1/C(=C/C=C/c2sc3cc(O)c(O)cc3[n+]2CC)Oc2ccccc21 [drawing 44|E|5,6-OH|H]	8.0	–
–	CCN1/C(=C/C=C/c2sc3ccc(C#N)cc3[n+]2CC)Oc2ccccc21 [drawing 44|E|5-CN|H]	>13.3	–
–	CCN1/C(=C/C=C/c2sc3ccccc3[n+]2CC)Oc2cccc(O)c21 [drawing 44|E|H|4-OH]	0.43	–
–	CCN1/C(=C/C=C/c2sc3ccccc3[n+]2CC)Oc2cc(C)c(C)cc21 [drawing 44|E|H|5,6-Me]	>20.0	–
–	CCN1/C(=C/C=C/c2sc3ccccc3[n+]2CC)Oc2cc(C)c(Cl)cc21 [drawing 44|E|H|5-Cl, 6-Me]	11.4	–

CX (IC50 in the CX-1 cell line) ([1]; colonies after 7-10 days)	Compound	CV/CX (selectivity, kill ratio) [1]	other results
–	CCN1/C(=C/C=C/c2sc3ccccc3[n+]2CC)Oc2ccc(C)cc21 [drawing 44|E|H|5-Me]	4.0	–
–	CCN1/C(=C/C=C/c2sc3ccccc3[n+]2CC)Oc2ccc(NS(=O)(=O)c3ccccc3)cc21 [drawing 44|E|H|5-NHSO2Ph]	16.7	–
0.08 µg/mL	CCN1/C(=C/C=C/c2oc3cc4c(cc3[n+]2CC)OCO4)Oc2cc3c(cc21)OCO3 [drawing 45|5,6-OCO—|5,6-OCO—]	5.0	–
–	CCN1/C(=C/C=C/c2oc3c(Cl)c(C)c(Cl)cc3[n+]2CC)Oc2c1cc(Cl)c(Cl)c2C [drawing 45|5,7-Cl, 6-Me|5,6-Cl, 7-Me]	>10.0	–
>.32 µg/mL	CCN1/C(=C\C=C\c2oc3ccc(C(F)(F)F)cc3[n+]2CC)Oc2ccc(C(F)(F)F)cc21 [drawing 45|5-CF3|5-CF3]	10.0	–
>.32 µg/mL	CCOC(=O)c1ccc2c(c1)N(CC)/C(=C/C=C/c1oc3ccc(C(=O)OCC)cc3[n+]1CC)O2 [drawing 45|5-CO2Et|5-CO2Et]	10.0	–
0.16 µg/mL	CCN1C(=CC=Cc2oc3cc(C)c(Cl)cc3[n+]2CC)Oc2cc(C)c(Cl)cc21 [drawing 45|5-Cl, 6-Me|5-Cl, 6-Me]	12.5	–
>.32 µg/mL	CCN1C(=CC=Cc2oc3ccc(F)cc3[n+]2CC)Oc2ccc(F)cc21 [drawing 45|5-F|5-F]	10.0	–
0.16 µg/mL	CCN1/C(=C/C=C/c2oc3c(-c4ccccc4)cccc3[n+]2CC)Oc2c(-c3ccccc3)cccc21 [drawing 45|7-Ph|7-Ph]	5.0	–
0.10 µg/mL	CCN1C(=CC=Cc2oc3ccccc3[n+]2CC)Oc2ccccc21 [drawing 45|H|H]	30.0	–
–	CCN1C(=CC=Cc2sc3cc(O)c(O)cc3[n+]2CC)Oc2ccccc21 [drawing 46|S|O|5,6-OH|H]	8.0	–
0.10 µg/mL	CCN1/C(=C/C=C/c2sc3ccc4ccccc4c3[n+]2CC)Sc2cc(N)ccc21 [drawing 47|NH2]	40	–
0.07 µg/mL	CCN1C(=CC=c2sc(=Cc3sc4ccccc4[n+]3CC)n(CC)c2=O)Sc2ccccc21 [drawing 51|Et]	22.8	–
–	CC[n+]1c(/C=C/C=C2\[Te]c3ccc4ccccc4c3N2C)sc2ccccc21 [naphtho/1,2/tellurazole]	–	CX [1]: 0.10; CV/CX [1]: 3.0
–	CC[n+]1c(/C=C/C=C2\Sc3ccc4ccccc4c3N2C)sc2ccccc21 [naphtho/1,2/thiazole (R=E/M)]	–	CX [1]: 0.300; CV/CX [1]: 13.3
–	CN1/C(=C/C=C/c2sc3ccccc3[n+]2C)Sc2ccc3ccccc3c21 [naphtho/1,2/thiazole (R=M)]	–	CX [1]: <0.005; CV/CX [1]: 10.0
–	CCN1C(=CC=Cc2sc3ccccc3[n+]2CC)Sc2cc3ccccc3cc21 [naphtho/2,3/thiazole]	–	CX [1]: 0.007; CV/CX [1]: 57.0

Compound	CX (IC50 in the CX-1 cell line) ([1]; colonies after 7-10 days)	CV/CX (selectivity, kill ratio) [1]	other results
CCN1C(=CC=Cc2oc3ccc(OC)cc3[n+]2CC)Oc2ccc(OC)cc21 [drawing 45|5-MeO|5-MeO]	0.31 µg/mL	5.16	–
CCN1/C(=C\C=C\c2[se]c3ccccc3[n+]2CC)Sc2cc(O)c(O)cc21 [drawing 46|Se|S|H|5,6-OH]	0.30 µg/mL	33.3	–
CCN1C(=CC=Cc2[te]c3ccccc3[n+]2CC)[Te]c2ccccc21 [drawing 46|Te|Te|H|H]	0.30 µg/mL	16.7	–

Reference: patent publication US20060099712A1, “Correlation of anti-cancer activity of dyes with redox potentials” (Eastman Kodak Company, priority 2004, published 2006)
